Test results taken from US9896435B2, “N-pyrrolidinyl,N′-pyrazolyl-urea, thiourea, guanidine and cyanoguanidine compounds as TrkA kinase inhibitors” (Array BioPharma Inc., priority 2012, dated 2018).

Assays:
Test in all cases: KinaseProfiler off-target kinase profiling
Type in all cases: biochemical
Conditions in all cases: 10 μM, ATP near Km
GRK6 = GRK6 (Homo sapiens (Human), UniProt P43250)
Method: (§1) Two representative compounds (Example 2, 14) of the invention were tested for off-target kinase activity at a concentration of 10 μM by Millipore, Inc. in their KinaseProfiler™ service against all the kinases available in their full kinase panel. These compounds were run in duplicate at a concentration of ATP near the Km for each individual kinase according to Millipore's specifications. The results are shown in Table B. Data are reported as percent of control (POC) and are the average of the two replicates.

EphA1 = EphA1 (Homo sapiens (Human), UniProt P21709)
Method: as §1

Rsk3 = Rsk3 (Homo sapiens (Human), UniProt Q15349)
Method: as §1

PRKG1beta = PRKG1beta (Homo sapiens (Human), UniProt Q13976)
Method: as §1

FGFR3 = FGFR3 (Homo sapiens (Human), UniProt P22607)
Method: as §1

NEK6 = NEK6 (Homo sapiens (Human), UniProt Q9HC98)
Method: as §1

Lyn = Lyn (Homo sapiens (Human), UniProt P07948)
Method: as §1

ALK4 = ALK4 (Homo sapiens (Human), UniProt P36896)
Method: as §1

EphA2 = EphA2 (Homo sapiens (Human), UniProt P29317)
Method: as §1

CAMK2g = CAMK2g (Homo sapiens (Human), UniProt Q13555)
Method: as §1

CDK2/cyclinE = CDK2/cyclinE (Homo sapiens (Human), UniProt P24941)
Method: as §1

PKCbetaII = PKCbetaII (Homo sapiens (Human), UniProt P05771)
Method: as §1

BrSK1 = BrSK1 (Homo sapiens (Human), UniProt Q8TDC3)
Method: as §1

Fes = Fes (Homo sapiens (Human), UniProt P07332)
Method: as §1

IGF-1R = IGF-1R (Homo sapiens (Human), UniProt P08069)
IGF-1R, sequence (P08069 31-1367): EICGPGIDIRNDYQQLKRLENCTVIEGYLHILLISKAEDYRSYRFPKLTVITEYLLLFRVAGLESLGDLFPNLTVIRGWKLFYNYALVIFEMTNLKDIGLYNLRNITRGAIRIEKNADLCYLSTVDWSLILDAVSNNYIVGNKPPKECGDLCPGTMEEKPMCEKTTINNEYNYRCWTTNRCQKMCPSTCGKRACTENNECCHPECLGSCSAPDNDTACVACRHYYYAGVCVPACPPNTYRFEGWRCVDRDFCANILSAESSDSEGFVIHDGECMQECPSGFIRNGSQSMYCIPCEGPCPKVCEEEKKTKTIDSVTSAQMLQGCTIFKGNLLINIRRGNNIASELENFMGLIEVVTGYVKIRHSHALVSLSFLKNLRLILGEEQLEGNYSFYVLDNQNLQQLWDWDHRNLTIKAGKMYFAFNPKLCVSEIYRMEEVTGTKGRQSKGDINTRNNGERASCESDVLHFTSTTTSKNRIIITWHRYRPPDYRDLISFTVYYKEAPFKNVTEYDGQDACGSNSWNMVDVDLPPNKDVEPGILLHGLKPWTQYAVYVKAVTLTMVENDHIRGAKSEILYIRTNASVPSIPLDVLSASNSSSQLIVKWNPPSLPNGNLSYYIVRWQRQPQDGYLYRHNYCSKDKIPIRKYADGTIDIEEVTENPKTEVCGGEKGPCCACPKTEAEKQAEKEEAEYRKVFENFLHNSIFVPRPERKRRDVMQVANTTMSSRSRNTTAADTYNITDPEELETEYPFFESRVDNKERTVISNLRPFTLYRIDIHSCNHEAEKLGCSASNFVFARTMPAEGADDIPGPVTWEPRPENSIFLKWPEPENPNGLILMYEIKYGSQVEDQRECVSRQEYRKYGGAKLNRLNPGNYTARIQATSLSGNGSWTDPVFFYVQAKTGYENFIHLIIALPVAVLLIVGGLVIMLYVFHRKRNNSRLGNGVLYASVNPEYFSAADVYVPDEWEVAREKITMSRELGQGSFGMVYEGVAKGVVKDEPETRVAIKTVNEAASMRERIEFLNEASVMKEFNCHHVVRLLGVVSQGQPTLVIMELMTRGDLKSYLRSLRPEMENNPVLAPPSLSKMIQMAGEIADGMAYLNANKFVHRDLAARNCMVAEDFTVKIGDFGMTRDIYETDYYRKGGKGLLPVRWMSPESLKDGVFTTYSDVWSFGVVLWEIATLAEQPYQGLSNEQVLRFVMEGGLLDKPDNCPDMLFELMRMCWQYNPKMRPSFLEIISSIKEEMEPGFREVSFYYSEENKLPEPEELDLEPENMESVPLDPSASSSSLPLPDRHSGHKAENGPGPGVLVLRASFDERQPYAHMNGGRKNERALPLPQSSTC
Method: as §1

MKK4_m = MKK4_m (Mus musculus (Mouse), UniProt P47809)
Method: as §1

Fms = Fms (Homo sapiens (Human), UniProt P07333)
Method: as §1

mTOR = mTOR (Homo sapiens (Human), UniProt P42345)
Method: as §1

IRR = IRR (Homo sapiens (Human), UniProt P14616)
Method: as §1

BrSK2 = BrSK2 (Homo sapiens (Human), UniProt Q8IWQ3)
Method: as §1

JNK1alpha1 = JNK1alpha1 (Homo sapiens (Human), UniProt P45983)
Method: as §1

Syk = Syk (Homo sapiens (Human), UniProt P43405)
Method: as §1

WNK3 = WNK3 (Homo sapiens (Human), UniProt Q9BYP7)
Method: as §1

BTK = BTK (Homo sapiens (Human), UniProt Q06187)
BTK, sequence (Q06187 whole entry): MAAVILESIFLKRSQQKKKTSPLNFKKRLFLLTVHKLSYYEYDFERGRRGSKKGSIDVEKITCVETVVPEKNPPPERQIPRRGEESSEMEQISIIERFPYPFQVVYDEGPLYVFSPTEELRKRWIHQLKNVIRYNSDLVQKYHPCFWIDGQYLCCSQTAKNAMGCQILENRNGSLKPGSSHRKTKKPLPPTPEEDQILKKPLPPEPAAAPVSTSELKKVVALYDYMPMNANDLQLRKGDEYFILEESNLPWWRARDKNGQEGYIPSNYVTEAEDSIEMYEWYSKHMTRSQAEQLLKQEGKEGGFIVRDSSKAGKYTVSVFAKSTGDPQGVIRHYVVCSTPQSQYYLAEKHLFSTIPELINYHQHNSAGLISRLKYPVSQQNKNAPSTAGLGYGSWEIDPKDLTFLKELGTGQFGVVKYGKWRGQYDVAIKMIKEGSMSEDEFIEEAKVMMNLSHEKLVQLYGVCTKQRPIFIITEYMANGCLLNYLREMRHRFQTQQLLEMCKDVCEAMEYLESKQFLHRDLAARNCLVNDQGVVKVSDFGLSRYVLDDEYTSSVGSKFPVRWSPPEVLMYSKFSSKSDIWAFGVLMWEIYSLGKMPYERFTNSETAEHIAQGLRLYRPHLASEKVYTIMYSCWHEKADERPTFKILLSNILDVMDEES
Method: as §1

Pim-2 = Pim-2 (Homo sapiens (Human), UniProt Q9P1W9)
Method: as §1

SIK = SIK (Homo sapiens (Human), UniProt P57059)
Method: as §1

CHK1 = CHK1 (Homo sapiens (Human), UniProt O14757)
Method: as §1

ROCK-II = ROCK-II (Homo sapiens (Human), UniProt O75116)
Method: as §1

SGK3 = SGK3 (Homo sapiens (Human), UniProt Q96BR1)
Method: as §1

Lck = Lck (Homo sapiens (Human), UniProt P06239)
Method: as §1

JNK3 = JNK3 (Homo sapiens (Human), UniProt P53779)
Method: as §1

MARK2 = MARK2 (Homo sapiens (Human), UniProt Q7KZI7)
Method: as §1

MELK = MELK (Homo sapiens (Human), UniProt Q14680)
Method: as §1

TrkA = TrkA (Homo sapiens (Human), UniProt P04629)
TrkA, sequence (P04629 33-796): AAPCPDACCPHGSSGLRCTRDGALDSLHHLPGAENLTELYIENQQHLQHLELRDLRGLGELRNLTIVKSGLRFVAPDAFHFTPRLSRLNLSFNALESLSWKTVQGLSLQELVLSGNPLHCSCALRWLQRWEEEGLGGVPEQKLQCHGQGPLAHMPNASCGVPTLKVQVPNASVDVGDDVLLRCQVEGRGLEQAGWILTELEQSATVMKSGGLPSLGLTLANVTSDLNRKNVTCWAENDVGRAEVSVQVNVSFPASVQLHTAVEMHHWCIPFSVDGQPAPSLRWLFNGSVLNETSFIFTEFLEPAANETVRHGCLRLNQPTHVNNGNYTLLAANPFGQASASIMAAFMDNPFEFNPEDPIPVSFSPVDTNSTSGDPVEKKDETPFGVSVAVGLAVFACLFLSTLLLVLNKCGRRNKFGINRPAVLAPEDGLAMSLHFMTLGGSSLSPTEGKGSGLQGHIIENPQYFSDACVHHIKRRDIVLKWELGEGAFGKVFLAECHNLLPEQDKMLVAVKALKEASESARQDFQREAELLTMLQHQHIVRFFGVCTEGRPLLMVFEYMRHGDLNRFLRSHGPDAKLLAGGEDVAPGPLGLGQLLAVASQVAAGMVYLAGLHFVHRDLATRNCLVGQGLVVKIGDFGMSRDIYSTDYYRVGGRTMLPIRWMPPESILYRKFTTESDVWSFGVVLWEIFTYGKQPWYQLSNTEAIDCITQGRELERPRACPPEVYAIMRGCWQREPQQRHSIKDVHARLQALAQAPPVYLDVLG
Method: as §1

MSK1 = MSK1 (Homo sapiens (Human), UniProt O75582)
Method: as §1

DAPK3 = DAPK3 (Homo sapiens (Human), UniProt O43293)
Method: as §1

PAK2 = PAK2 (Homo sapiens (Human), UniProt Q13177)
PAK2, sequence (Q13177 whole entry): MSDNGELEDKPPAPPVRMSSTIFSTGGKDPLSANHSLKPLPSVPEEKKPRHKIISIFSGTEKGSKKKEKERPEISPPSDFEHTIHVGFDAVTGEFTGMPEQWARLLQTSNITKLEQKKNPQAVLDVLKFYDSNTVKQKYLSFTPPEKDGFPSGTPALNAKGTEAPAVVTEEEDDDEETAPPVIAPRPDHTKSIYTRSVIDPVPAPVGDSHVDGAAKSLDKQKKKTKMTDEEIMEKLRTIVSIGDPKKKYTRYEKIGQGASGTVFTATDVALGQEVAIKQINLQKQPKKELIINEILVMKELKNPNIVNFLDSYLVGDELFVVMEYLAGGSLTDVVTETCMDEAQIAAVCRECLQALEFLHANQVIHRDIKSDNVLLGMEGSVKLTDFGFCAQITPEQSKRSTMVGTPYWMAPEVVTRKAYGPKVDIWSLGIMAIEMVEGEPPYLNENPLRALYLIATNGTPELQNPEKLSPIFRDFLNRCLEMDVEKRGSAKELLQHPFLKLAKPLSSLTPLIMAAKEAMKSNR
Method: as §1

CDK9/cyclinT1 = CDK9/cyclinT1 (Homo sapiens (Human), UniProt P50750)
CDK9/cyclinT1, sequence (P50750 whole entry): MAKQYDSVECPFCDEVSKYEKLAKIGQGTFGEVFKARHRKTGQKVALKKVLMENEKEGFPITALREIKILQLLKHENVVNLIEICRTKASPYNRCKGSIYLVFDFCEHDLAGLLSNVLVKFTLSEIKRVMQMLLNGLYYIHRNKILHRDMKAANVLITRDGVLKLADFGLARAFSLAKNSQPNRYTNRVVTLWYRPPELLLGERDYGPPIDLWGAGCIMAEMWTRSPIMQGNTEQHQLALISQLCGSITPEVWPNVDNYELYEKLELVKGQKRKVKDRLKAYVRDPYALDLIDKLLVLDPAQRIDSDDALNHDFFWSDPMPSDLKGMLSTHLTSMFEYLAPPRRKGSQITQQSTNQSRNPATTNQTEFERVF
CDK9/cyclinT1, sequence (O60563 whole entry partner): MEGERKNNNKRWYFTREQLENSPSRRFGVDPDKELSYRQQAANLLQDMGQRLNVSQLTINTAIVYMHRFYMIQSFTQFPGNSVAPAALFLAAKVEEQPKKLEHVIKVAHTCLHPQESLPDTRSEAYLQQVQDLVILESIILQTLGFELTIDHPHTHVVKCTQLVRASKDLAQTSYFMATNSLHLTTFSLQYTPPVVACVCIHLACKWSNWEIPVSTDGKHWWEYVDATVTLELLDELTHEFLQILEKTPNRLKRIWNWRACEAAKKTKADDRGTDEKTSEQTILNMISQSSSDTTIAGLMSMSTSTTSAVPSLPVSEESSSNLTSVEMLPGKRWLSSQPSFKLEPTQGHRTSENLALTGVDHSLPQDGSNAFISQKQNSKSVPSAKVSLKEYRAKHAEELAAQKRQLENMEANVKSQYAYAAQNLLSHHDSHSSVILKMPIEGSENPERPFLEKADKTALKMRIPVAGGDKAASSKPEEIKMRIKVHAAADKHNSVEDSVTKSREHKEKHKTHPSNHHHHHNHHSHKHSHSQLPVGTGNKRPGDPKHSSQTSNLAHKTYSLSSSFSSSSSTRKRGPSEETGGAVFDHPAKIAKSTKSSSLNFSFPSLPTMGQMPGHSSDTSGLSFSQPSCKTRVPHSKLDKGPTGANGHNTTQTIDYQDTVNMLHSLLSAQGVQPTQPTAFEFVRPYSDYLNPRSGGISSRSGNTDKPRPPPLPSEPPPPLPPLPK
Method: as §1

ERK1 = ERK1 (Homo sapiens (Human), UniProt P27361)
Method: as §1

MST2 = MST2 (Homo sapiens (Human), UniProt Q13188)
MST2, sequence (Q13188 whole entry): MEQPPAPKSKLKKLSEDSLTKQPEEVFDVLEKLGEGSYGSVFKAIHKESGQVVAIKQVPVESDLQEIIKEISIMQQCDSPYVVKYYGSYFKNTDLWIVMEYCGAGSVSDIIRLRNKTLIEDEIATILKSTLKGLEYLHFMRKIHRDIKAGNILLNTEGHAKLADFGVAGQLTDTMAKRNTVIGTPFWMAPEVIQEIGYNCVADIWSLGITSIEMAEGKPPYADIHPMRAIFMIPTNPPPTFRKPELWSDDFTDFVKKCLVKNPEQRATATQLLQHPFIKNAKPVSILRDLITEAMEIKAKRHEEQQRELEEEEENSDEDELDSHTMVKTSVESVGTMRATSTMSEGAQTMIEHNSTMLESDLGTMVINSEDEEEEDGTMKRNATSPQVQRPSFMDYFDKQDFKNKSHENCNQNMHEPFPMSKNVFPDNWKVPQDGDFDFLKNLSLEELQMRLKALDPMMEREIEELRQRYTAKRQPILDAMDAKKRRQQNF
Method: as §1

Structure (SMILES)	Avg POC (GRK6)	Avg POC (EphA1)	Avg POC (Rsk3)	Avg POC (PRKG1beta)	Avg POC (FGFR3)	Avg POC (NEK6)	Avg POC (Lyn)	Avg POC (ALK4)	Avg POC (EphA2)	Avg POC (CAMK2g)	Avg POC (CDK2/cyclinE)	Avg POC (PKCbetaII)	Avg POC (BrSK1)	Avg POC (Fes)	Avg POC (IGF-1R)	Avg POC (MKK4_m)	Avg POC (Fms)	Avg POC (mTOR)	Avg POC (IRR)	Avg POC (BrSK2)	further results
COCCN1C[C@@H](NC(=O)Nc2c(C)c(-c3ccnc(C)c3)nn2-c2ccccc2)[C@H](c2ccc(F)c(F)c2)C1 [Example 2, 1-((3S,4R)-4-(3,4-difluorophenyl)-1-(2-methoxyethyl)pyrrolidin-3-yl)-3-(4-methyl-3-(2-methylpyridin-4-yl)-1-phenyl-1H-pyrazol-5-yl)urea]	96.5 POC	97 POC	98 POC	97.5 POC	111.5 POC	105.5 POC	112 POC	112.5 POC	110.5 POC	89.5 POC	103 POC	101.5 POC	104 POC	135.5 POC	63 POC	115 POC	101.5 POC	108.5 POC	105 POC	93 POC	Avg POC (JNK1alpha1): 98 POC; Avg POC (Syk): 86 POC; Avg POC (WNK3): 99 POC; Avg POC (BTK): 109 POC; Avg POC (Pim-2): 86.5 POC; Avg POC (SIK): 106.5 POC; Avg POC (CHK1): 114.5 POC; Avg POC (ROCK-II): 102.5 POC; Avg POC (SGK3): 106 POC; Avg POC (Lck): 113 POC; Avg POC (JNK3): 111.5 POC; Avg POC (MARK2): 90 POC; Avg POC (MELK): 110 POC; Avg POC (TrkA): 0.5 POC; Avg POC (MSK1): 102.5 POC; Avg POC (DAPK3): 107 POC; Avg POC (PAK2): 95.5 POC; Avg POC (CDK9/cyclinT1): 104 POC; Avg POC (ERK1): 103 POC; Avg POC (MST2): 99.5 POC
COCCN1C[C@@H](NC(=O)Nc2c(C)c(-c3cnc(C)nc3)nn2-c2ccccc2)[C@H](c2cc(F)cc(F)c2)C1 [Example 14, 1-((3S,4R)-4-(3,5-difluorophenyl)-1-(2-methoxyethyl)pyrrolidin-3-yl)-3-(4-methyl-3-(2-methylpyrimidin-5-yl)-1-phenyl-1H-pyrazol-5-yl)urea]	97 POC	99 POC	96 POC	101.5 POC	133.5 POC	102 POC	105.5 POC	115 POC	96 POC	99 POC	98.5 POC	92 POC	94 POC	125 POC	79 POC	116.5 POC	76 POC	102.5 POC	96 POC	99 POC	Avg POC (JNK1alpha1): 105 POC; Avg POC (Syk): 88 POC; Avg POC (WNK3): 96 POC; Avg POC (BTK): 97.5 POC; Avg POC (Pim-2): 103.5 POC; Avg POC (SIK): 96 POC; Avg POC (CHK1): 104.5 POC; Avg POC (ROCK-II): 93.5 POC; Avg POC (SGK3): 107 POC; Avg POC (Lck): 112.5 POC; Avg POC (JNK3): 121 POC; Avg POC (MARK2): 99.5 POC; Avg POC (MELK): 111.5 POC; Avg POC (TrkA): 1 POC; Avg POC (MSK1): 106 POC; Avg POC (DAPK3): 105.5 POC; Avg POC (PAK2): 92.5 POC; Avg POC (CDK9/cyclinT1): 104 POC; Avg POC (ERK1): 78.5 POC; Avg POC (MST2): 101 POC
